Measurements reported in patent US20090143454A1, “Pyrazoline Derivatives and Their Use As Pesticides” (BAYER CROPSCIENCE AG, priority 2001, published 2009).

What was measured:
Assay type in all cases: in vivo
[1] = test system: Heliothis virescens caterpillars; assay: Heliothis virescens test; settings: 500 ppm, soyabean shoots dipped
Procedure: (§1) To produce a suitable preparation of active compound, 1 part by weight of active compound is mixed with the stated amounts of solvent and emulsifier, and the concentrate is diluted with emulsifier-containing water to the desired concentration.
Soyabean shoots (Glycine max) are treated by being dipped into the preparation of active compound of the desired concentration and are populated with Heliothis virescens caterpillars while the leaves are still moist.
(§2) After the desired period of time, the kill in % is determined. 100% means that all caterpillars have been killed; 0% means that none of the caterpillars have been killed.

[2] = test system: Boophilus microplus resistent/SP-resistent Parkhurst-strain, adult sucked female; assay: Test with Boophilus microplus resistent/SP-resistent Parkhurst-strain; settings: 100 μg animal, injected into the abdomen; oviposition of fertile eggs after 7 days
Procedure: […] More dilute concentrations are prepared by dilution with the same solvent.
The test is carried out in 5-fold determination. […] The control of activity is made after 7 days for oviposition of fertile eggs. Eggs whose fertility cannot be seen from the outside are stored in glass tubes in a climate chamber until the larvae have been hatched. An activity of 100% means, that no tick has hatched fertile eggs.

[3] = test system: adult Musca domestica, strain Reichswald (OP, SP, carbamate-resistent); assay: Test with flies (Musca domestica); settings: 100 ppm; treated filter paper; time not given
Procedure: (§3) 20 mg of active compound are dissolved in 1 ml of dimethyl sulphoxide. More dilute concentrations are prepared by dilution with distilled water.
2 ml of the preparation of active compound are pipetted onto a filter paper dish (Ø 9.5 cm), which are placed in a Petri dish of corresponding diameter. After drying of the filter dishes 25 test animals are transferred in the Petri dishes and covered.
After 1, 3, 5, 24 and 48 hours (or after the times given in the tables below) the activity of the preparation of active compound is determined. 100% means, that all flies have been killed, 0% means, that none of the flies have been killed.

[4] = test system: caterpillars of the diamond back moth (Plutella xylostella); assay: Plutella test; settings: 500 ppm, cabbage leaves dipped
Procedure: as §1
Cabbage leaves (Brassica oleracea) are treated by being dipped into the preparation of active compound of the desired concentration and are populated with caterpillars of the diamond back moth (Plutella xylostella) while the leaves are still moist.
as §2

[5] = test system: caterpillars of the army worm (Spodoptera exigua); assay: Spodoptera exigua test; settings: 500 ppm, cabbage leaves dipped
Procedure: as §1
Cabbage leaves (Brassica oleracea) are treated by being dipped into the preparation of active compound of the desired concentration and are populated with caterpillars of the army worm (Spodoptera exigua) while the leaves are still moist.
as §2

[6] = test system: Diabrotica balteata larvae; assay: Diabrotica test (larvae in soil); settings: 20 ppm (mg/l soil), Diabrotica balteata larvae on maize in treated soil
Periplaneta americana = assay: Cockroach test; settings: dipped 1 minute, after 7 days
Procedure: as §3
4 test animals are dipped for 1 minute into the preparation of active compound to be tested. After transfer into a plastic beaker and storage for 7 days in an air-conditioned room the killing rate is determined. 100% means, that all cockroaches have been killed, 0% means, that none of the cockroaches have been killed.

N#Cc1cnn(C2CN(C(=O)Nc3ccc(OC(F)(F)F)cc3)N=C2c2ccc(Cl)cc2)c1 (stereo not shown) [drawing 38]
Kill rate in % after 7 d [1]: 100%

N#Cc1cnn(C2CN(C(=O)Nc3ccc(SC(F)(F)F)cc3)N=C2c2ccc(Cl)cc2)c1 (stereo not shown) [drawing 41]
Kill rate in % after 7 d [1]: 100%

N#Cc1cnn(C2CN(C(=O)Nc3ccc(S(=O)(=O)C(F)(F)F)cc3)N=C2c2ccc(Br)cc2)c1 (stereo not shown) [drawing 91]
activity/kill rate in % [2]: 100%

N#Cc1cnn(C2CN(C(=O)Nc3ccc(OC(F)(F)F)cc3)N=C2c2ccc(Br)cc2)c1 (stereo not shown) [drawing 95]
activity/kill rate in % [3]: 75%

N#Cc1cnn(C2CN(C(=O)Nc3ccc(C(F)(F)F)cc3)N=C2c2ccc(Cl)cc2)c1 (stereo not shown) [drawing 54]
Kill rate in % after 7 d [4]: 100%

N#Cc1cnn(C2CN(C(=O)Nc3ccc(SC(F)(F)F)cc3)N=C2c2ccc(Cl)cc2)c1 (stereo not shown) [drawing 60]
Kill rate in % after 7 d [5]: 100%

N#Cc1cnn(C2CN(C(=O)Nc3ccc(OC(F)(F)F)cc3)N=C2c2ccc(Cl)cc2)c1 (stereo not shown) [drawing 93]
activity/kill rate in % [3]: 30%

N#Cc1cnn(C2CN(C(=O)Nc3ccc(C(F)(F)F)cc3)N=C2c2ccc(Cl)cc2)c1 (stereo not shown) [drawing 59]
Kill rate in % after 7 d [5]: 100%

N#Cc1cnn(C2CN(C(=O)Nc3ccc(SC(F)(F)F)cc3)N=C2c2ccc(Cl)cc2)c1 (stereo not shown) [drawing 56]
Kill rate in % after 7 d [4]: 100%

N#Cc1cnn(C2CN(C(=O)Nc3ccc(C(F)(F)F)cc3)N=C2c2ccc(Cl)cc2)c1 (stereo not shown) [drawing 39]
Kill rate in % after 7 d [1]: 100%

N#Cc1cnn(C2CN(C(=O)Nc3ccc(OC(F)(F)F)cc3)N=C2c2ccc(Cl)cc2)c1 (stereo not shown) [drawing 53]
Kill rate in % after 7 d [4]: 100%

N#Cc1cnn(C2CN(C(=O)Nc3ccc(Cl)cc3)N=C2c2ccc(Cl)cc2)c1 (stereo not shown) [drawing 40]
Kill rate in % after 7 d [1]: 100%

N#CCN(C(=O)N1CC(n2cc(C#N)cn2)C(c2ccc(Cl)cc2)=N1)c1ccc(OC(F)(F)F)cc1 (stereo not shown) [drawing 96]
activity/kill rate in % [3]: 60%

N#Cc1cnn(C2CN(C(=O)Nc3ccc(SC(F)(F)F)cc3)N=C2c2ccc(Cl)cc2)c1 (stereo not shown) [drawing 37]
Kill rate in % after 10 d [6]: 100%

CCOC(=O)N(C(=O)N1CC(n2cc(C#N)cn2)C(c2ccc(Cl)cc2)=N1)c1ccc(OC(F)(F)F)cc1 (stereo not shown) [drawing 100]
activity/kill rate in % (Periplaneta americana; 20 ppm): 25%
activity/kill rate in % (Periplaneta americana; 100 ppm): 75%

N#Cc1cnn(C2CN(C(=O)Nc3ccc(C(F)(F)F)cc3)N=C2c2ccc(Cl)cc2)c1 (stereo not shown) [drawing 98]
activity/kill rate in % (Periplaneta americana; 100 ppm): 50%

N#Cc1cnn(C2CN(C(=O)Nc3ccc(C(F)(F)F)cc3)N=C2c2ccc(Cl)cc2)c1 (stereo not shown) [drawing 94]
activity/kill rate in % [3]: 30%

N#Cc1cnn(C2CN(C(=O)Nc3ccc(Cl)cc3)N=C2c2ccc(Cl)cc2)c1 (stereo not shown) [drawing 55]
Kill rate in % after 7 d [4]: 100%

N#Cc1cnn(C2CN(C(=O)Nc3ccc(OC(F)(F)F)cc3)N=C2c2ccc(Cl)cc2)c1 (stereo not shown) [drawing 58]
Kill rate in % after 7 d [5]: 100%

N#Cc1cnn(C2CN(C(=O)Nc3ccc(OC(F)(F)F)cc3)N=C2c2ccc(I)cc2)c1 (stereo not shown) [drawing 102]
activity/kill rate in % (Periplaneta americana; 100 ppm): 50%

N#CCN(C(=O)N1CC(n2cc(C#N)cn2)C(c2ccc(Cl)cc2)=N1)c1ccc(OC(F)(F)F)cc1 (stereo not shown) [drawing 92]
activity/kill rate in % [2]: 100%
